Holding throughout (assay type): in vivo
Experiment [1] deals with McIntosh® Apple trees. Kind of experiment: Example 1: spraying McIntosh apple trees with cyclanilide suspension, observations about two months later. To be noted: about two months after spraying; for % fruit dropped from tree: with Regulaid 0.25% v/v. From the text: An orchard of McIntosh® Apple trees at a stage where the apples were approximately 4.5 cm in diameter were sprayed with an aqueous suspension comprising cyclanilide and Regulaid®, a non-ionic surfactant (0.25% v/v) at several rates. About two months later, the following observations were made: […]

Experiment [2] concerns McIntosh® Apple trees. Nature of the experiment: Example 2: cyclanilide vs ReTain vs untreated on apple trees, results just before harvest. To be noted: for % cumulative fruit dropped from tree / Fruit Starch Index: just before harvest. The source says:
An orchard of McIntosh® Apple trees at a stage where the apples were approximately 4.5 cm in diameter were sprayed with an aqueous suspension comprising cyclanilide and Regulaid®, a non-ionic surfactant (0.25% v/v) at several rates. About two months later, the following observations were made:
The process of Example 1 was repeated using an aqueous suspension comprising cyclanilide and a surfactant using an application rate of cyclanilide of 50 g/ha. As a comparison, ReTain® ([S]-trans-2-amino-4-(2-aminoethoxy)-3-butenoic acid) was applied according to commercially acceptable methods on another plot of trees and another plot of trees were left untreated.
Just before harvest, the following results were obtained: […]

Another experiment concerns apple trees. Nature of the experiment: General findings on apples treated by the method of the invention (description).
[3] abbreviates: compared with untreated fruit and fruit treated by prior art compounds.

The structures appear in SMILES notation.

As to `O=C(O)C1(C(=O)Nc2ccc(Cl)cc2Cl)CC1` [cyclanilide, 1-(2,4-dichloroanilinocarbonyl)cyclopropane carboxylic acid], in the experiment with McIntosh® Apple trees [1] (cyclanilide 50 g/ha), the “BRIX index (soluble solids)” value is reported as 13, the “Fruit Starch Index” value amounted to 5.1 and the “% fruit dropped from tree” value was determined as 6%. Besides, in the experiment on McIntosh® Apple trees [1] (cyclanilide 100 g/ha), the “BRIX index (soluble solids)” value is 12.9, the “Fruit Starch Index” value is 5.0 and the “% fruit dropped from tree” value worked out at 9.8%. Further, in the experiment with McIntosh® Apple trees [1] (cyclanilide 200 g/ha), the “BRIX index (soluble solids)” value is 13.0, the “Fruit Starch Index” value was found to be 4.9 and the “% fruit dropped from tree” value was 13.5%. In the experiment with McIntosh® Apple trees [2] (50 g/ha of ingredient), the “% cumulative fruit dropped from tree” value is on record as 47.4% and the “Fruit Starch Index” value came to 5.0. In the experiment with McIntosh® Apple trees [2] (cyclanilide 50 g/ha, compared with ReTain-treated fruit), the “color of the fruit” value is “better than that of the fruit treated by the prior art compound ReTain®”. Moreover, the “overall quality of fruit” value in the experiment on McIntosh® Apple trees [2] (cyclanilide 50 g/ha, compared with untreated fruit and ReTain-treated fruit) is “better than that of the untreated fruit and that obtained from treatment by the prior art compound ReTain®”. In addition, in the experiment with apple trees (compared with apples not treated), the “starch content of apples” value was “lower starch content than apples not treated by the method of the invention”. Moreover, in the experiment on apple trees (compared with fruit treated by prior art compounds), the “color characteristic of apples” value was “better color characteristic than fruit treated by prior art compounds”. Besides, in the experiment on apple trees (setting [3]), the “content of soluble solids as measured by the BRIX index” value was “higher content of soluble solids than untreated fruit and than fruit treated by prior art compounds”; the firmness of apples result is “greater firmness than untreated fruit and than fruit treated by prior art compounds”. The “amount of fruit drop as a function of the amount applied” value with apple trees (general statement) was “generally decreases as a function of the amount of cyclanilide applied”.
Turning to `NCCO/C=C/[C@H](N)C(=O)O` (stereo in doubt) [ReTain ®, [S]-trans-2-amino-4-(2-aminoethoxy)-3-butenoic acid, reference compound], in the experiment with McIntosh® Apple trees [2] (125 g/ha of ingredient), the “% cumulative fruit dropped from tree” value is reported as 68.2% and the “Fruit Starch Index” value was 5.4.

The record behind these values is patent US20010044384A1, “Method of preventing premature fruit drop from apple trees” (priority 1998, published 2001).
